Reference: ChEMBL document CHEMBL3301555, “MMV Malaria Box screening in pLDH viability assay against Plasmodium falciparum gametocytes”

test system: Plasmodium falciparum; assay: MMV: Measure of pLDH activity as indication of parasite viability. Gametocytogenesis of 3D7 Plasmodium falciparum strain was induced in vitro and asexual parasites were depleted with N-acetylglucosamine. Gametocytes were treated with dihydroartemisinin, epoxomicin, methylene blue, primaquine, puromycin or chloroquine in 96-well plates and the pLDH activity was evaluated using a modified Makler protocol. Mosquito infectivity was measured by the standard membrane feeding assay.; type: functional; design: concentration or dose not given beside the values

SMILES	Growth Inhibition [%]
CCN1CCCC1CNc1[nH]cnc2c3cc(Cl)ccc3nc1-2 (centres undefined)	8.5536
COc1ccc(-c2c(C)nn3c(N)c(C#N)cnc23)cc1OC	32.2252
CSC1=NC(=Nc2c(C)cccc2C)C2(CCC(C(C)(C)C)CC2)N1c1ccc(Cl)cc1 (centres undefined)	-2.9236
C[n+]1c2ccccc2nc2ccc(NCCO)cc21	16.8202
Cc1cc(C)cc(Nc2cc(C)nc3nc(C(F)(F)F)nn23)c1	-10.2568
O=C(NCC(c1ccsc1)N1CCCCCC1)c1ccc(C(F)(F)F)cc1 (centres undefined)	-3.1098
COc1ccc(-c2cc3c(SCC(=O)Nc4cc(C(F)(F)F)ccc4Cl)nccn3n2)cc1	0.117
Cc1ccc(-c2cc3c(SCC(=O)Nc4cc(C(F)(F)F)ccc4Cl)nccn3n2)cc1	-10.2658
CCN(CC)CCNc1ncnc2c1[nH]c1ccc(Cl)cc12	10.0038
CCOC(=O)c1cnc2ccc(CC)cc2c1O	41.8585
Cc1ccc(-c2cc3c(nn2)-c2ccccc2C3=O)cc1	32.1362
CCN(CC)CCNc1ccnc2cc(Cl)ccc12	9.9324
CCCCCC(=O)N1c2ccccc2N=C2CC(c3ccc(OC)c(OC)c3)CC(O)=C2C1c1ccc(C(F)(F)F)cc1 (centres undefined)	33.4948
Cc1cc(Nc2ccc3ccccc3c2)n2ncnc2n1	-5.4308
Cc1cc(NCCN2CCCCC2)c2ccc3ccccc3c2n1	17.8584
COc1ccc(-n2ccnc2SCC(=O)Nc2cc(C)ccc2C)c(OC)c1	2.884
CCN1CCN(Cc2ccc(NC(=O)c3cc4ccc5cccnc5c4[nH]3)cc2)CC1	4.9364
COc1ccc(-c2nc(NC(=O)CS(=O)(=O)c3ccc(F)cc3)sc2C)cc1	30.52
O=C(NCc1ccco1)C1CCN(S(=O)(=O)c2ccc(Cl)cc2)CC1	3.8942
O=C(O)C1Cc2c([nH]c3ccccc23)C(c2ccc(Cl)cc2Cl)N1 (centres undefined)	8.0448
c1ccc(-c2ccc(-c3nc4ccccc4[nH]3)cc2)cc1	7.2118
CCC(C)NCC(O)(c1ccc(Cl)cc1)c1ccc(Cl)cc1 (centres undefined)	29.3926
Cc1ccc(N2C(=O)C3C(C2=O)C2(c4ccccc4)C(=O)C3(c3ccccc3)C(c3ccccc3)=C2c2ccccc2)cc1 (centres undefined)	4.6846
CCc1c(C)c(=N)c2ccccc2n1C.I	-4.4994
CCOC(=O)c1cn(CC)c2cc(N(C)CCc3ccc(OC)c(OC)c3)c(F)cc2c1=O	25.5006

SMILES	Growth Inhibition [%]
CCC(c1ccccc1)c1nn2c(-c3cccs3)nnc2s1 (centres undefined)	4.041
CC(C)(C)c1ccc(O)c(CNC2CCCCC2)c1	30.335
O=[N+]([O-])c1ccc(C=NNc2nc3ccccc3[nH]2)cc1	-2.3354
CCOc1cc2c(cc1OCC)C(c1cc(OC)c(O)cc1Cl)NCC2 (centres undefined)	24.0654
CC1CN(C(=O)c2sc3ccccc3c2Cl)CC(C)O1 (centres undefined)	1.741
COCCNC(=O)c1ccc(OC2CCN(Cc3ccc(F)c(F)c3)CC2)c(Cl)c1	5.6964
CN(C)c1ccc(C=Cc2nc(=O)c3ccccc3o2)cc1	1.8448
COc1ccc(C2=C(c3ccc(OC)cc3)C3(c4ccccc4)C(=O)C2(c2ccccc2)C2C(=O)N(c4ccc(C)cc4)C(=O)C23)cc1 (centres undefined)	-4.8036
CCOC(=O)c1c(NC(=O)c2ccccc2)sc2c(O)c(CN(CC)CC)ccc12	35.4934
CCOC(=O)C1=C(c2ccccc2)N=c2sc(=Cc3cc(C)n(-c4ccc(F)cc4)c3C)c(=O)n2C1c1cccc(OC)c1OC (centres undefined)	-7.255
CCC1(C)CC(CCNCc2ccccc2O)(c2ccc(C)cc2)CCO1 (centres undefined)	26.52
O=C(CCc1ccco1)NC1CCN(CC2(c3ccc(Cl)cc3)CCC2)CC1	18.8072
OC(CNC1CCCCC1)Cn1c2ccccc2c2ccccc21 (centres undefined)	33.5526
Cc1cc(Nc2ccc(C)c(Cl)c2)n2nc(C(F)(F)F)nc2n1	1.818
COc1cccc(C=Cc2nc(=O)c3ccccc3o2)c1OC	2.1344
CCCN(CCC)CC(O)COc1ccccc1C(=O)Nc1ccccc1 (centres undefined)	34.3502
Fc1ccc2[nH]c3c(NCCCN4CCOCC4)ncnc3c2c1	3.632
COc1ccc(C(=O)Nc2nonc2-c2ccc(OC)c(OC)c2)cc1Cl	7.9826
COCCN(C(=O)Cc1cccs1)C(C(=O)NCc1ccc(OC)cc1)c1ccc(C(C)C)cc1 (centres undefined)	12.1412
COc1ccc(C=C2SC(=N)N(c3ccccc3OC)C2=O)cc1	26.57
COc1ccc(NC(=O)C2c3ccccc3C(=O)N(CC(C)C)C2c2cccs2)cc1Cl (centres undefined)	14.3436
CCOC(=O)c1c(C)n(-c2ccc(Cl)cc2)c2ccc(OC(=O)C=Cc3ccccc3)cc12	-3.2706
COc1ccc2c(c1)OC(O)(C(F)(F)C(F)(F)F)CC2=O (centres undefined)	11.5806
FC(F)(F)c1cccc(CNC2CCN(CCc3ccccc3)CC2)c1	12.4718
Oc1ccc(Cl)cc1CNc1nc2ccccc2[nH]1	5.249

SMILES	Growth Inhibition [%]
CCOc1cc(Cl)c(C(C)NC(=O)c2ccccc2)cc1OCC (centres undefined)	3.3956
C=CC12CCN(CC1)C(C(O)c1ccnc3ccc(OC)cc13)C2.Cl (centres undefined)	15.913
Cc1ccc(-c2cc3nc4c(c(O)n3n2)CCCC4)cc1	9.811
O=C(c1ccccc1F)N(Cc1ccc(Cl)cc1)c1ccccn1	9.2554
Cc1cccc(Nc2nc(N)c3ccccc3n2)c1.Cl	-0.3732
CCn1c(CN2CCN(Cc3ccccc3)CC2)nc2cc(NC(=O)c3cccs3)ccc21	17.812
COc1ccccc1CNC(=O)CCn1c(=O)[nH]c2ccccc2c1=O	-1.4414
O=C(Nc1ccc(Cl)cc1)N1CCN(c2ccc3nncn3n2)CC1	-0.5422
c1ccc2cc3c(Nc4ccc(N5CCOCC5)cc4)ccnc3cc2c1	12.7974
CCCCNCC(O)(c1ccc(Cl)cc1)c1ccc(Cl)cc1	33.502
Cc1cc(C)c2c(c1)OCN(Cc1ccccc1Cl)C2	32.69
COc1cc(OC)c(N(C)C(=O)c2cc3c(s2)-c2ccccc2S(=O)(=O)C3)cc1Cl	6.301
CCOC(=O)c1cn(CC)c2cc(N3CCCCC3)c(F)cc2c1=O	27.8444
CCCc1cc(O)c2c3c(c(=O)oc2c1)CN(C)CC3	31.2868
Cc1cc(NC(=O)C2c3ccccc3C(=O)N(CC(C)C)C2c2cccs2)no1 (centres undefined)	21.7574
Cl.Oc1ccccc1CNCC12CC3CC(CC(C3)C1)C2	28.0055
CNCCCNc1ccnc2cc(Cl)ccc12	-4.352
COc1ccccc1CNC(=O)CCn1c(=O)[nH]c2ccsc2c1=O	-5.0228
COc1ccc(Br)cc1C1Nc2ccc3ccccc3c2C2=C1C(=O)CC(c1ccccc1)C2 (centres undefined)	7.0344
Cc1cc(C=C2SC(=Nc3ccccc3)N(C3CCCC3)C2=O)c(C)n1-c1ccc(Cl)cc1	-0.992
CCn1c(SCC(=O)Nc2cc(C(F)(F)F)ccc2Cl)nc2ccccc2c1=O	-1.2952
Cc1ccc(Cn2c(N3CCC(C(=O)NCc4cccs4)CC3)nc3ccccc32)cc1	-1.5746
CC1CCN(Cc2ccc(NC(=O)c3cc4ccc5cccnc5c4[nH]3)cc2)CC1	2.4882
O=C(Nc1ccc(Cl)cc1C(=O)Nc1ccncc1)c1ccc(Cl)cc1Cl	4.844
CCOc1cccc2sc(N(Cc3cccnc3)C(=O)C3CCCCC3)nc12	1.8442

SMILES	Growth Inhibition [%]
CCOc1ccc(-c2nonc2NC(=O)c2cccc(C)c2)cc1OCC	30.014
CCc1ccc(Nc2cc(C)c3ccc(O)cc3n2)cc1.Cl	27.662
COc1ccc2c(=O)cc(C(Cl)(Cl)Cl)oc2c1	12.9182
CC(C)(C)CC(C)(C)NCC(O)COc1ccc2c(c1)CCC2.Cl (centres undefined)	14.2274
CCOc1ccc(/C=C/c2nc(=O)c3ccccc3o2)cc1	7.7706
O=C(Nc1ccccc1O)c1ccc(-c2ccc(Cl)cc2Cl)o1	15.81
O=C(Nc1nc(-c2ccccn2)cs1)c1ccccc1Br	29.0858
CC(O)(c1ccc(Cl)cc1)C(CN1CCCCC1)c1ccccc1.Cl (centres undefined)	18.9754
CCCCc1ccc(NS(=O)(=O)c2cc3c4c(c2)CCN4C(=O)CC3)cc1	-1.4264
CCOc1ccccc1CNC(=O)C1c2ccccc2C(=O)N(CC(C)C)C1c1cccs1 (centres undefined)	7.24
COc1ccc(-c2nc3cc(Cc4ccc5[nH]c(-c6ccc(OC)cc6)nc5c4)ccc3[nH]2)cc1	4.7376
CCOC(=O)c1ccc2nc(-c3ccccc3)cc(O)c2c1	40.6125
Cc1cc(Nc2ccc(Cl)cc2)n2nc(C(F)(F)F)nc2n1	7.7522
COc1ccc(C(C)=O)cc1N1C(=O)C2C(C1=O)C1(c3ccccc3)C(=O)C2(c2ccccc2)C(c2ccc(C)cc2)=C1c1ccc(C)cc1 (centres undefined)	-2.6232
CCCCCCOC(=O)C1=C(C)NC(=O)NC1c1ccccc1F (centres undefined)	6.2916
COc1ccc(C2Sc3ccccc3N=C3C2=C(O)c2ccccc23)cc1 (centres undefined)	-5.7444
Cc1ccc(N2C3c4ccccc4N(S(=O)(=O)c4ccc(C)cc4)C2c2ccccc2N3S(=O)(=O)c2ccc(C)cc2)cc1	-2.5084
CCCc1c(CC)c(=N)c2ccccc2n1C	4.7322
CCN(CC)CCCNc1nc(-c2ccc(Cl)cc2)nc2ccccc12	7.9964
Cc1ccc(Nc2nc(NCCO)c3ccccc3n2)cc1C	11.5812
CC1CCCCN1CCCNC(=O)c1ccc2c(c1)sc1nc(-c3ccc(F)cc3)cn12 (centres undefined)	16.9994
CCOC(=O)c1cnc2c(C)cc(C)cc2c1Nc1ccc(OC)c(OC)c1	-11.2088
COc1ccc(NC(=O)C2c3ccccc3C(=O)N(CC(C)C)C2c2cccs2)cc1 (centres undefined)	28.379
c1ccc(Cn2c(N=Nc3c(Nc4ccccc4)ccc4ccccc34)nc3ccccc32)cc1	28.0754
